Here are results for 1 molecule from US20130137776A1, “METHOD FOR INHIBITING HISTONE GENE TRANSCRIPTION AND EXPRESSION” (CHINA MEDICAL UNIVERSITY, priority 2011, published 2013).

The subject of data set [1] is histone gene transcription of the HSC-3 cancer cell line. In words: Microarray analysis of gene expression in hinokitiol-treated HSC-3 cells. Format: cell-based. The settings on record: 6.25 μM or 12.5 μM hinokitiol, 24 hours, Affymetrix Human Gene 1.0 ST microarray. The protocol: (1) Cell Culture and RNA Collection
Human oral squamous-cell carcinoma (OSCC) cell lines, such as HSC-3 (JCRB0623, Japan), was cultured. The relative culture methods can be seen in Shieh, T. M. et al., Association of expression aberrances and genetic polymorphisms of lysyl oxidase with areca-associated oral tumorigenesis. Clin Cancer Res, 2007. 13(15 Pt 1): p. 4378-85; Chen, J. C. et al., Gypenosides induced G0/G1 arrest via CHk2 and apoptosis through endoplasmic reticulum stress and mitochondria-dependent pathways in human tongue cancer SCC-4 cells. Oral Oncol, 2009. 45(3): p. 273-83; and Lin, C. C. et al., Berberine induces apoptosis in human HSC-3 oral cancer cells via simultaneous activation of the death receptor-mediated and mitochondrial pathway. Anticancer Res, 2007. 27(5A): p. 3371-8, which are entirely incorporated hereinto by reference.
Then, the HSC-3 cell lines were divided into four groups: two groups of the cells were not treated by hinokitiol (0 μM); one group of the cells was treated by 6.25 μM hinokitiol (commercially purchased from Sigma-Aldrich company); and one group of the cells was treated by 12.5 μM hinokitiol. […] The content and purity of the obtained RNA were respectively determined at wavelengths of 260 nm and 280 nm by using a micro-volume spectrophotometer (Nanodrop ND-1000, commercially purchased from Labtech. International company). […]

Data set [2] relates to histone H2B and H3 gene expression in HSC-3 cell line. The data set can be described thus: Reverse transcription-PCR of histone H2B and H3 gene expression. It counts as cell-based, human. As to conditions: 6.25 μM, 24 hours, GAPDH internal control. The protocol:
HSC-3 cell lines were cultured and respectively treated by 0 μM and 6.25 μM hinokitiol for 24 hours. Then, the cells were scratched from the cell culture dishes and collected by centrifugation. Afterwards, reverse transcription-PCR (RT-PCR) was performed. The protocols and conditions related to RT-PCR can be seen in Shieh, T. M. et al., Association of expression aberrances and genetic polymorphisms of lysyl oxidase with areca-associated oral tumorigenesis. Clin Cancer Res, 2007. 13 (15 Pt1), p. 4378-85; and Shieh, T. M. et al., Association between the polymorphisms in exon 12 of hypoxia-inducible factor-1alpha and the clinicopathological features of oral squamous cell carcinoma. Oral Oncol, 2010. 46 (9), p. e47-53, which are entirely incorporated hereinto by reference.
The gene expression level of Glyceraldehyde-3-phosphate dehydrogenase (GAPDH) was used as an internal control. The variation of the gene expression level of histone H2B and H3 in HSC3 cell lines treated by hinokitiol was compared with the control group, and the results are shown in FIG. 2. At least two independent RT-PCR experiments were performed to validate the reproducibility of the analysis.

The test system of data set [3] is histone H3 expression in HSC-3 cancer cell line. The data set can be described thus: Western blotting analysis of histone H3, HSC-3 cancer cell line. The settings on record: 6.25 μM and 12.5 μM, 24 hours, actin internal control. It counts as cell-based, human. As for the experimental part: (§1) Normal human oral keratinocyte cell lines (OK, obtained from China Medical University Hospital, Taiwan), HSC-3 cancer cell lines, and SAS cancer cell lines (OSCC cancer cell line, obtained from the tongue tissue of a patient in National Yang Ming University, Taiwan) were cultured (the protocols related to cell culture can be seen in Lu, S. Y. et al., Ripe areca nut extract induces G1 phase arrests and senescence-associated phenotypes in normal human oral keratinocyte. Carcinogenesis, 2006. 27 (6), p. 1273-84; and Shieh, T. M. et al., Association of expression aberrances and genetic polymorphisms of lysyl oxidase with areca-associated oral tumorigenesis. Clin Cancer Res, 2007. 13 (15 Pt 1), p. 4378-85, which are entirely incorporated hereinto by reference). The cells were respectively treated by 0 μM, 6.25 μM, and 12.5 μM hinokitiol for 24 hours, and scratched from the cell culture dishes and collected by centrifugation. Then, western blotting analysis was performed (see Lu, S. Y. et al., Ripe areca nut extract induces G1 phase arrests and senescence-associated phenotypes in normal human oral keratinocyte. Carcinogenesis, 2006. 27 (6), p. 1273-84, which is entirely incorporated hereinto by reference). […]

Data set [4] concerns histone H3 expression in SAS cancer cell line. In words: Western blotting analysis of histone H3, SAS cancer cell line. Format: cell-based, human. The settings on record: 6.25 μM and 12.5 μM, 24 hours, actin internal control. As for the experimental part:
as §1
For orientation: In western blotting, separated proteins are transferred to a membrane and probed.

The subject of data set [5] is histone H3 expression in normal human oral keratinocyte cell line (OK). In words: Western blotting analysis of histone H3, normal human oral keratinocyte cell line. Format: cell-based. As to conditions: 6.25 μM and 12.5 μM, 24 hours, actin internal control. The protocol:
as §1

The subject of data set [6] is HSC-3 cells. The data set can be described thus: Cell cycle analysis by flow cytometry (PI staining). Format: cell-based, human. The settings on record: 24 hours, 0 μM control 31.38%. As for the experimental part: HSC-3 cells (2×10^5/4 ml) were respectively treated by 0 μM, 3.12 μM, and 6.25 μM hinokitiol for 24 hours, washed by an ice-cold PBS buffer solution twice, and fixed in 70% ice-cold ethanol at 4° C. for 4 hours. Then, the cells were stained by propidium iodide (PI), and a cell cycle analysis was performed by using a BD FACSAria flow cytometer (commercially purchased from Becton Dickinson, Germany). The obtained data was analyzed by MULTICycle Software (commercially purchased from Coulter company, U.S.A.).
(In general: In flow cytometry, cells or beads pass a laser one at a time.)

For data set [7] the following is noted: compound of formula (I) and its salts; cited from Imai et al. 2006 and Ema et al. 2004 (rats); cited from earlier work.

As to `CC(C)c1cccc(O)c(=O)c1` [hinokitiol], the “expression of histone genes (H1d, H3g, H3j, H3a, H3h, H2bm, H2bg, H3l, H2bf, H2a) vs untreated control” value in data set [1] is reported as “decreased by above two-fold”. In data set [2], the “gene expression level of histone H2B” value is reported as “decreased”. Besides, the “gene expression level of histone H3” value in data set [2] is “decreased”. Besides, the “expression level of histone H3” value in data set [3] is given as “significantly decreased”; in data set [4], “significantly decreased”; in data set [5], “not affected”. Moreover, the “proportion of the cells in the synthesis phase (S phase)” value in data set [6] (3.125 μM hinokitiol) is on record as 41.19%; in data set [6] (6.25 μM hinokitiol) it was 43.89%. Moreover, in data set [7], the biological toxicity entry is listed as “low biological toxicity”.
